Measurements: ChEMBL document CHEMBL5385961, “In vitro and in vivo evaluation of novel chromeno[2,3-d]pyrimidinones as therapeutic agents for triple negative breast cancer” (RSC Med Chem, 2024)
The source made the active and inactive calls. The rule behind the calls is not given here.

Columns and labels:
[1] = Toxicity in wild type C57BL/6J mouse assessed as mean food intake at 10 mg/kg, ip administered daily for 7 days; type: organism-based; conditions: in vivo, 168 h, time 7 day
[2] = species: Homo sapiens; test: Selectivity index, ratio of IC50 for human MCF-10A cells to IC50 for human Hs-578T cells
[3] = Toxicity in wild type C57BL/6J mouse assessed as effect on body temperature at 10 to 50 mg/kg, ip administered daily for 7 days; type: organism-based; conditions: in vivo, 168 h, dose 10-50 mg/kg, time 7 day
[4] = tested on: MDA-MB-231; test: Cytotoxicity against human MDA-MB-231 cells assessed as cell viability at 30 uM incubated for 72 hrs by SRB assay relative to control; type: functional; conditions: read-out: Activity
[5] = tested on: Hs-578T; test: Antitumor activity against human Hs-578T cells implanted in chick eggs assessed as tumor growth regression at 2 times IC50 administered starting from day 13 and measured 17 days post embryo development by stereomicroscopic analysis; type: functional, cell-based; conditions: time 5.0 day
[6] = tested on: Hs-578T; test: Cytotoxicity against human Hs-578T cells assessed as reduction in cell proliferation at IC50 measured after 24 hrs by BrdU incorporation assay relative to control; type: functional; set-up: scale not given: the % may be the effect or the level left
[7] = tested on: Hs-578T; test: Induction of apoptosis in human Hs-578T cells assessed as increase in BID protein expression at IC50 measured after 24 to 48 hrs by Western blot analysis; type: functional, cell-based; conditions: time 24-48 hrs
[8] = Toxicity in wild type C57BL/6J mouse assessed as effect on eyelid reflexes at 10 to 50 mg/kg, ip administered daily for 7 days and measured daily; type: organism-based; conditions: in vivo, 168 h, dose 10-50 mg/kg, time 7 day
[9] = tested on: Hs-578T; test: Induction of apoptosis in human Hs-578T cells assessed as increase in caspase-9 protein expression at IC50 measured after 24 to 48 hrs by Western blot analysis; type: functional, cell-based; conditions: time 24-48 hrs
[10] = tested on: Hs-578T; test: Induction of apoptosis in human Hs-578T cells assessed as increase in early apoptotic cells at IC50 measured after 24 to 48 hrs by Annexin V-FITC/PI staining based flow cytometry analysis; type: functional, cell-based; conditions: time 24-48 hrs
[11] = Toxicity in wild type C57BL/6J mouse assessed as effect on fur quality at 10 to 50 mg/kg, ip administered daily for 7 days and measured daily; type: organism-based; conditions: in vivo, 168 h, dose 10-50 mg/kg, time 7 day
[12] = tested on: MCF7; test: Cytotoxicity against human MCF7 cells assessed as cell viability at 10 uM incubated for 72 hrs by SRB assay relative to control; type: functional; conditions: read-out: Activity
[13] = Toxicity in wild type C57BL/6J mouse assessed as effect on body curvature at 10 to 50 mg/kg, ip administered daily for 7 days and measured daily; type: organism-based; conditions: in vivo, 168 h, dose 10-50 mg/kg, time 7 day
[14] = tested on: MCF7; test: Cytotoxicity against human MCF7 cells assessed as cell viability at 30 uM incubated for 72 hrs by SRB assay relative to control; type: functional; conditions: read-out: Activity
[15] = Toxicity in wild type C57BL/6J mouse assessed as effect on horizontal activity at 10 to 50 mg/kg, ip administered daily for 7 days and measured daily; type: organism-based; conditions: in vivo, 168 h, dose 10-50 mg/kg, time 7 day

## Brc1ccc2c(c1)-c1cc(-c3ccccc3)nc3c1C(N=CN3c1ccccc1)O2 (stereo not given)
[1]
  Activity: ~ 3 g/day
[2]
  Ratio IC50: 3.26
[3]
  Activity: Non-Toxic
[4]
  viability at 30 µM: 40.5%
[5]
  Activity: Active
[6]
  Activity: ~30%
[7]
  Activity: Active
[8]
  Activity: Non-Toxic
[9]
  Activity: Active
[10]
  Activity: Active
[11]
  Activity: Non-Toxic
[12]
  viability at 10 µM: 58%
[13]
  Activity: Non-Toxic
[14]
  viability at 30 µM: 25.9%
[15]
  Activity: Non-Toxic
